Laboratory results published in ChEMBL document CHEMBL1143549, “Novel 4-amino-furo[2,3-d]pyrimidines as Tie-2 and VEGFR2 dual inhibitors” (Bioorg Med Chem Lett, 2005).

Assays:
Angiopoietin-1 receptor [1] = molecular target: T1, Angiopoietin-1 receptor (Homo sapiens, UniProt Q02763); test: Inhibitory concentration against human tyrosine protein kinase receptor TIE-2
[2] = molecular target: Vascular endothelial growth factor receptor 2 (Homo sapiens, UniProt P35968); test: Inhibitory concentration against human vascular endothelial growth factor receptor 2
HFF = test: Cytotoxic concentration against HFF cells was determined; assay type: functional, cell-based; settings: Homo sapiens
HUVEC = test: Concentration required for growth inhibition of human umbilical vein endothelial cells stimulated by VEGF; assay type: functional, cell-based
Angiopoietin-1 receptor [3] = molecular target: T1, Angiopoietin-1 receptor; test: Concentration required to inhibit autophosphorylation of tyrosine protein kinase receptor TIE-2 transfected in 3T3 cells; assay type: functional, cell-based, NIH3T3

T1 sequence (Q02763 whole entry): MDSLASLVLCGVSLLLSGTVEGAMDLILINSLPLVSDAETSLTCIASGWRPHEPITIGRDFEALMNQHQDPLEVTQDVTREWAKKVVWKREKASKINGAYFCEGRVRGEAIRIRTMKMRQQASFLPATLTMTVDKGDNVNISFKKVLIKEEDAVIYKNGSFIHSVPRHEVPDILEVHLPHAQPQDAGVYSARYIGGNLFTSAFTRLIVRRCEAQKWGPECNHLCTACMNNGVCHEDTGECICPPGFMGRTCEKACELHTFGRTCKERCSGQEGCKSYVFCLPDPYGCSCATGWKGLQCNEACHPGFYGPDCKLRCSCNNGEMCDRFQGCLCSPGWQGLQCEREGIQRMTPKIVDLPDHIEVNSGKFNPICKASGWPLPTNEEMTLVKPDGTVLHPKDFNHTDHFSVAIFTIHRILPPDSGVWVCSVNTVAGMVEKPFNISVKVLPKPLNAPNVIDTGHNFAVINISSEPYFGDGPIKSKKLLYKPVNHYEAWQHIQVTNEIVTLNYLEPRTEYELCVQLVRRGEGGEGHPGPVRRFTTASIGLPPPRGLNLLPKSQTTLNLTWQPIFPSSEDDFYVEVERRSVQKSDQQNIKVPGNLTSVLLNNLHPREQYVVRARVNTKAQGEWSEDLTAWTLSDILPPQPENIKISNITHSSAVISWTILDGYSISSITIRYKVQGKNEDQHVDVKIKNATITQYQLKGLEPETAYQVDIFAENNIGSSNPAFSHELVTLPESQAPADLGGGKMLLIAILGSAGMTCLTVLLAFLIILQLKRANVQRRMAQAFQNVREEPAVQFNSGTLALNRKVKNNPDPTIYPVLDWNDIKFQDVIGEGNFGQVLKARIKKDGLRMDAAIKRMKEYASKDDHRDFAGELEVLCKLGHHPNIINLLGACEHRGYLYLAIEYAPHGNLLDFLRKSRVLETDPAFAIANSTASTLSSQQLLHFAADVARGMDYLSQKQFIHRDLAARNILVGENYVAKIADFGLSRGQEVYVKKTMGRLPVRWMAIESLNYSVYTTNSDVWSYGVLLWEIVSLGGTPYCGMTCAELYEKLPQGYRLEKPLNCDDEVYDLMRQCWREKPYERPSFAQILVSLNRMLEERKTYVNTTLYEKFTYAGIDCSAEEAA
Chain of Vascular endothelial growth factor receptor 2 (P35968 whole entry): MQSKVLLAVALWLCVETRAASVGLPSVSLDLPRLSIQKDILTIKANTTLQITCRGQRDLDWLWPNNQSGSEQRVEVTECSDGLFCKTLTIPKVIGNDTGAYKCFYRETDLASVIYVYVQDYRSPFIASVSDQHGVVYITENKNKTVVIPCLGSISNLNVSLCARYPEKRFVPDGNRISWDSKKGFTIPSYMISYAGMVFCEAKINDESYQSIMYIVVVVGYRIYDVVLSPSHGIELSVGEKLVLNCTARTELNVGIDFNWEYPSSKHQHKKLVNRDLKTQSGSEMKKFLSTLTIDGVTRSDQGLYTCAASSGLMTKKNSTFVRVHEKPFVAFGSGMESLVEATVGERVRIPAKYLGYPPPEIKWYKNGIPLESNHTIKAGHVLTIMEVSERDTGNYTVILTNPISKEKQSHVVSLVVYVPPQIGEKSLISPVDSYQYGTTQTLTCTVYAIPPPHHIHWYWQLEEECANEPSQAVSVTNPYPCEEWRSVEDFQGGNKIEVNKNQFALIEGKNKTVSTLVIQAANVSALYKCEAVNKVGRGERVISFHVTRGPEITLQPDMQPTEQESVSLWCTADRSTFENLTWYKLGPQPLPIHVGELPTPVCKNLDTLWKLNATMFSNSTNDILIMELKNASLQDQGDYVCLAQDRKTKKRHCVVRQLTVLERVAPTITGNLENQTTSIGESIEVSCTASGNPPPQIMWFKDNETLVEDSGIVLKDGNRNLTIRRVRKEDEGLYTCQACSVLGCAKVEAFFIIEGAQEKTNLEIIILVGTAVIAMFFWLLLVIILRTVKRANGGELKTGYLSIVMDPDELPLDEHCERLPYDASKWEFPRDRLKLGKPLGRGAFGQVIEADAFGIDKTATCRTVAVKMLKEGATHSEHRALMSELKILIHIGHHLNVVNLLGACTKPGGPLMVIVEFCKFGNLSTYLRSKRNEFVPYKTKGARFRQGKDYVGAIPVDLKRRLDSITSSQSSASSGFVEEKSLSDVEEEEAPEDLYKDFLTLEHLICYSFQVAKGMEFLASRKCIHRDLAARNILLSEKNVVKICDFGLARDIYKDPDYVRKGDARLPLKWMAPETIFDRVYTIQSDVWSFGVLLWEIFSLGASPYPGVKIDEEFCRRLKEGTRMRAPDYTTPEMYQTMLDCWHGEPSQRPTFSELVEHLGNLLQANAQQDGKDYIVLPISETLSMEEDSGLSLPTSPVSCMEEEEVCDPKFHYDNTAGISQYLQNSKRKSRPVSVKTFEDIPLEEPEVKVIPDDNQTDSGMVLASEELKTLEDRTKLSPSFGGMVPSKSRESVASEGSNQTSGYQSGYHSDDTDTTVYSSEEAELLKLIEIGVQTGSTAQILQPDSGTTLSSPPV

| IC50 (Angiopoietin-1 receptor [1]) [nM] | IC50 [2] [nM] | IC50 (Angiopoietin-1 receptor [3]) [nM] | SMILES | IC50 (HFF) [nM] | IC50 (HUVEC) [nM] |
| --- | --- | --- | --- | --- | --- |
| 1000 | 1120 |  | COc1ccc(-c2oc3ncnc(N)c3c2-c2ccc(OC)cc2)cc1 |  |  |
|  | > 20000 |  | COc1ccc(-c2c(-c3ccc(Cl)c(Cl)c3)oc3ncnc(N)c23)cc1 |  |  |

More lines, now with the values behind:

| SMILES | IC50 (Angiopoietin-1 receptor [1]) [nM] | IC50 [2] [nM] | IC50 (Angiopoietin-1 receptor [3]) [nM] | IC50 (HFF) [nM] | IC50 (HUVEC) [nM] |
| --- | --- | --- | --- | --- | --- |
| COc1ccc(-c2cc3c(N)ncnc3o2)cc1 [GW642138X] | > 20000 | > 17000 |  |  |  |
| COc1ccc(-c2coc3ncnc(N)c23)cc1 [GW642125X] | > 20000 | 5500 |  |  |  |
| COc1ccc(-c2oc3ncnc(N)c3c2-c2ccc(NC(=O)Nc3cc(C(F)(F)F)ccc3F)cc2)cc1 | 2 | 3 | 6.3 | 790 | 45 |
| COc1ccc(-c2oc3ncnc(N)c3c2-c2cccc(NC(C)=O)c2)cc1 | > 20000 |  |  |  |  |
